Source: patent US20020156016A1, “Control of cell growth by altering cell membrane potentials” (priority 2001, published 2002)

Columns and labels:
Assay type in all cases: cell-based, human
Chang cells = assay: Cell PD determination (TMRE fluorescence); settings: non-transfected Chang cells, 50 μM muscimol, 48 hours
Experimental: (§1) A Leica DM IRB fluorescence microscope equipped with a PDMI-2 Open perfusion Micro-incubator (Harvard Apparatus, Saint-Laurent, Quebec) was used to measure PDs as described by Loew (Loew, 1998, Cell Biology: A Laboratory Handbook). The incubating temperature was 37° C. Twenty four hour cultured healthy, human hepatocytes and malignant hepatocytes were washed with NB buffer (130 mM NaCl, 5.5 mM KCl, 1.8 mM CaCl2, 1.0 mM MgCl2, 25 mM glucose and 20 mM HEPES buffer adjusted to pH 7.4) three times and then incubated for 10 min with NTB buffer (100 nM tetramethylrhodamine ethyl ester (TMRE) in NB buffer). After obtaining photographs of the fluorescent cells, they were washed with KB buffer (130 mM KCl, 5.5 mM NaCl, 1.8 mM CaCl2, 1.0 mM MgCl2, 25 mM glucose and 20 mM HEPES buffer adjusted to pH 7.4) three times and incubated for 10 min with DTB buffer (100 nM TMRE and 1 μM valinomysin in KB buffer). Photographs were then obtained of the depolarized cells. Fluorescence within the cell was designated intracellular fluorescence (Fin) and fluorescence outside the cell as extracellular fluorescence (Fout). To calculate PDs the Nernst equation was used.
(§2) PD=−(RT/ZF)λn[Fin dFout)/(FoutdFin),
where PD is membrane potential, Z is the charge of the permeable ion, F is Faraday's constant, R is the ideal gas constant and T is the absolute temperature. […]

[1] = tested on: Chang cells transfected with GABAA-β3 receptor cDNA; assay: Cell PD determination (TMRE fluorescence) after muscimol exposure
Experimental: as §1, §2
(§3) where PD is membrane potential, Z is the charge of the permeable ion, F is Faraday's constant, R is the ideal gas constant and T is the absolute temperature.
(§4) To determine whether further hyperpolarization could be achieved in Chang cells transfected with GABAA-β3 receptor cDNA, these cells together with non-transfected Chang cells and Chang cells transfected with vector alone were exposed to 50 μM muscimol, a specific GABAA receptor agonist for 48 hours.

[2] = tested on: Chang cells transfected with vector alone; assay: as above; settings: 50 μM muscimol, 48 hours
Experimental: as §1, §2, §3, §4

[3] = tested on: Chang cells transfected with GABAA-β3 receptor cDNA; assay: Proliferative activity after varying concentrations of muscimol; settings: muscimol 0-100 μM, FIG. 12
Experimental: (§5) [^3H]-thymidine incorporation was determined as described by Luk (Luk, 1986, Gastroenterology 90: 1261-1267). 5×10^4 cells were seeded into 6-well plates. After two days of culture to allow attachment to plate bottoms, cells were incubated with 1 μCi [^3H]-thymidine for 2 hours at 37° C. [^3H]-thymidine incorporated into cellular DNA was precipitated by the addition of 10% trichloroacetic acid (TCA) for 15 min at room temperature. Cells were rinsed and resolublilized in a 0.3 M NaOH and 1% SDS solution then assayed for radioactivity in a […].
(§6) Bromodeoxyuridine (BrdUrd) incorporation was determined by seeding 5×10^3 cells into 96 well plates. At subconfluence, cells were incubated with serum-free DMEM. Twenty-four hours later, the media was switched to DMEM containing BrdUrd for 2 hours. Incoroporation of BrdUrd was determined using a 5-Bromo-2′-deoxyuridine Labeling and Detection Kit III (Roche Diagnostics, Mississauga, Ontario, Canada) according to the manufacturer's instructions. Absorbance at 450-490 nm was measured using a microplate reader (Molecular Devices, Menlo Park, Calif., USA).
(§7) WST-1 determinations were performed using a commercially available kit (Boehringer Mannheim Canada, Laval, Quebec, Canada). Briefly, 1×10^4 cells were seeded into 96 well plates. After two days of culture one tenth the volume of 4-[3-(4-lodophenyl)-2-(4-nitrophenyl)-2H-5-tetrazolio]-1,3-benzene disulfonate (WST-1, Boehringer Mannheim, Laval, PQ) was added to each well, and the cells incubated with WST-1 for 4 h in 37° C. Asborbance at A405-A650 was determined by a microplate reader (Molecular Devices, Menlo Park, Calif., USA).
(§8) To determine whether the addition of muscimol and/or other GABAA receptor agonists might have therapeutic value in inhibiting the growth of malignant hepatocytes with restored GABAAβ3 receptor mRNA expression, proliferative activity was documented in Chang cells transfected with GABAA-β3 receptor cDNA or vector alone following exposure to varying concentrations of muscimol (0-100 μM).

[4] = tested on: Chang cells transfected with vector alone; assay: as above; settings: muscimol 0-100 μM, FIG. 12
Experimental: as §5, §6, §7, §8

NCc1cc(=O)[nH]o1 [muscimol]
effect on PDs (Chang cells): little or no effect
increase of PDs after muscimol ([1]; 50 μM muscimol, 48 hours): approximately 40%
PD post-muscimol ([1]; 50 μM muscimol, 48 hours, pre-muscimol −12.0±0.9): −16.4±0.8
effect on membrane potentials (PDs), in words ([1]; Muscimol 50 μM, FIG. 11): became more polarized
effect on PDs [2]: little or no effect
proliferative activity [3]: dose dependent decrease
proliferative activity ([3]; listed as Muscimol): significantly decreased in a dose dependent fashion
proliferative activity [4]: remained essentially unaltered
